Assay results as given in patent US20240190856A1, “MELANOCORTIN-4 RECEPTOR AGONIST” (LG CHEM, LTD., priority 2021, published 2024).
Structures can show the parent of a compound that is named as a salt.

Assays:
MC4R = MC4R (Homo sapiens, UniProt P32245); experiment: Binding affinity (125I-NDP-α-MSH displacement, membranes of HEK-293 cells expressing MC4R); parameters: expressed in transfected cells; host or cells: HEK-293 cells, membrane preparation; settings: 0.02 nM 125I-NDP-α-MSH, 37° C. for two hours, pH 7.0
Source text: Five subtypes of melanocortin receptor (MCR) in vivo are known, and it is known that MC4R, which is Subtype 4, is involved in energy metabolism and weight control. Since other MCR subtypes are involved in the regulation of various functions in vivo such as skin pigmentation, energy homeostasis, and exocrine functions, securing selectivity for MC4R of MC4R agonist compounds is very important in preventing possible side effects in the future. Therefore, the receptor binding abilities of MC4R agonists for each MCR subtype were measured.
After the CHO-K 1 cell line expressing human recombinant MC1R and the HEK-293 cell lines expressing MC3R, MC4R and MC5R were established, membranes were collected from each cell line. In a 96-well cell culture plate, 3 μg MC1R membrane and 0.04 nM ^125I-NDP-α-MSH per well were reacted at 37° C. for two hours. 3 μg MC3R and MC5R membrane and 0.035 nM ^125I-NDP-α-MSH were reacted at 37° C. for one hour, and […] MC4R membrane and 0.02 nM ^125I-NDP-α-MSH were reacted at 37° C. for two hours. At this time, 25 mM HEPES-KOH adsorption buffer (pH 7.0) containing MCR agonist diluted at each step concentration was added to each well and reacted. The reacted solution was transferred to a filter and washed with an adsorption buffer, and then radioactivity was measured. The value excluding the non-specific binding amount in the presence of 1 μM (MC1R) and 3 μM (MC3R, MC4R, MC5R) of NDP-α-MSH from each total binding amount was used as specific binding amounts of ^125I-NDP-α-MSH. The degree to which the ^125I-NDP-a-MSH specific binding was inhibited by the agonist diluted at each step concentration was measured. IC50 was expressed as the concentration of each agonist that inhibited specific binding of 50% of ^125I-NDP-α-MSH.
Tables 4-1 and 4-2 show the results of measuring the binding of melanocortin receptors of the compounds obtained by the above experiment in Ki (nM) units.

[1] = target: T1, MC4R (melanocortin-4 receptor) (Homo sapiens, UniProt P32245); experiment: Luciferase assay (CRE-LUC, HEK MC4R-Luc cells); assay type: cell-based; settings: 5 h incubation, concentration inducing 50% of each agonist's own maximum luminescence
T1 construct: expressed in transfected cells
Protocol: In order to measure the agonist ability against MC4R (melanocortin-4 receptor), a cell line that permanently expresses the luciferase gene (CRE-LUC) under the control of MC4R and CRE (cAMP response element) was established. After a mammalian cell expression vector (pCDNA3 (Neo)) (Invitrogen) containing the MC4R gene was prepared, human embryonic kidney (HEK) cell lines were transformed by using Lipofectamine 2000 (Invitrogen) together with a vector (pCRE-Luc)(Stratagen) expressing a luciferase gene (CRE-LUC) under the control of a cAMP response element (CRE). Transformed cell lines (HEK MC4R-Luc) were incubated in a 37° C. incubator in the presence of 5% CO2 for 24 hours by using Dulbecco's Modified Eagles Medium (DMEM) containing 10% Heat-Inactivated Fetal Bovine Serum (GIBCO/BRL). The cell lines were incubated for four days in the presence of Dulbecco's Modified Eagles Medium (DMEM) containing 10 ml of selection medium (10% Heat-Inactivated Fetal Bovine Serum (GIBCO/BRL), 100 unit/ml of penicillin (GIBCO/BRL), 100 unit/ml of streptomycin (GIBCO/BRL), 800 μg/ml of Geneticin (G418) (GIBCO/BRL). The process of removing cells killed by the selection medium by replacing the medium with 10 ml of a new selection medium was repeated three times, once every 4 days. Individual colonies formed by the finally selected and propagated clones were transferred under a microscope to a 24-well cell culture plate containing 1 ml of selection medium per well and incubated for 4 days. Forskolin (SIGMA) was treated to a final concentration of 10 μM, and then incubated for five hours in a 37° C. incubator in the presence of 5% CO2. Each well was treated with 50 μl of a Bright-Glo luciferase reagent (Promega) and left at room temperature for 15 minutes, and then the luminescence of each well was measured by using a luminometer (Victor).
HEK MC4R-Luc cells were added to each well of a 96-well luminometer cell culture plate (Costar) to a size of 2.5×10^4 cells in 100 μl of a culture medium and then incubated in a 37° C. incubator in the presence of 6% CO2 for 18 hours. […] Each well was treated with 50 μl of a Bright-Glo luciferase reagent (Promega) and left at room temperature for five minutes, and then the luminescence of each well was measured by using a luminometer (Victor). […] EC0.5 MSH is expressed as a concentration that induces 50% of the maximum amount of luminescence that can be induced by NDP-α-MSH, and EC50 is expressed as a concentration that induces 50% of the maximum amount of luminescence that can be induced by each agonist. The measurements were measured using statistical software (Prizm).

Sequence of MC4R (P32245 whole entry): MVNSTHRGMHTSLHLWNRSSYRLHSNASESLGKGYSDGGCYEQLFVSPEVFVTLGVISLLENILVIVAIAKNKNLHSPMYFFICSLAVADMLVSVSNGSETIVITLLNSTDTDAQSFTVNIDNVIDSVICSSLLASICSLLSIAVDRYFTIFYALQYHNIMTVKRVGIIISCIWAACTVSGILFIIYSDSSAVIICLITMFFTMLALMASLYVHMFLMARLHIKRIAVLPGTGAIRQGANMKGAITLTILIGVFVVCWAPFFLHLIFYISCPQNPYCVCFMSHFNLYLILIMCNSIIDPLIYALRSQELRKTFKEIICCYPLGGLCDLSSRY
T1 sequence (P32245 whole entry, species assumed): as the sequence (P32245 whole entry) above

SMILES | Ki (MC4R; Table 4-1) [nM] | Ki (MC4R; Table 4-2) [nM] | EC50 [1] [nM]
CC(=O)N(C1CCC(C)(C)CC1)[C@H]1C[C@@H](C(=O)N2CCOCC2)N(C(=O)[C@@H]2CN(C(C)(C)C)C[C@H]2c2ccc(Cl)cc2)C1 [Comparative Example 2 (A96), N-((3S,5S)-1-((3S,4R)-1-(tert-butyl)-4-(4-chlorophenyl)pyrrolidine-3-carbonyl)-5-(morpholine-4-carbonyl)pyrrolidin-3-yl)-N-(4,4-dimethylcyclohexyl)acetamide hydrochloride, reference compound] | 410 | 530 | 5.61
CC(C)C(=O)N(C1CCC(C)(C)CC1)[C@H]1C[C@@H](C(=O)N2CCOCC2)N(C(=O)[C@@H]2CN(C(C)(C)C)C[C@H]2c2ccc(Cl)cc2)C1 [Example 5, N-((3S,5S)-1-((3S,4R)-1-(tert-butyl)-4-(4-chlorophenyl)pyrrolidine-3-carbonyl)-5-(morpholine-4-carbonyl)pyrrolidin-3-yl)-N-(4,4-dimethylcyclohexyl)isobutyramide hydrochloride] | – | – | 3.82
CC(=O)N(C1CCC(C)(C)CC1)[C@H]1C[C@@H](C(=O)N2CCOCC2)N(C(=O)[C@@H]2CN(C(C)(C)C)C[C@H]2c2ccc(F)cc2F)C1 [Comparative Example 1 (A95), N-((3S,5S)-1-((3S,4R)-1-(tert-butyl)-4-(2,4-difluorophenyl)pyrrolidine-3-carbonyl)-5-(morpholine-4-carbonyl)pyrrolidin-3-yl)-N-(4,4-dimethylcyclohexyl)acetamide hydrochloride, reference compound] | 1450 | 1780 | 14.7
